Test system: rabbits
Assay: Anti-McGinty assay (antiprogestational activity, test compound plus progesterone)
Format: in vivo, rabbit
Parameters: key to McPhail Index, Anti-McGinty Assay, Standard / McPhail Index, Anti-McGinty Assay (Antagonist): McPhail scoring scale for progestational endometrial response
Conditions: for McPhail Index, Anti-McGinty Assay (Antagonist): plus progesterone
Protocol: Progestational activity and antiprogestational activity were determined in rabbits by means of the McGinty test (test compound alone, procedure of McGinty et al., Endocrinology, 24: 829-832 (1939)) or anti-McGinty test (test compound plus progesterone, procedure of Tamara et al., Jpn. J. Fertil Steril 24: 48-81 (1979)). Results were scored according to McPhail (McPhail, J Physiol., 83: 146 (1934)). These are standard procedures known to those skilled in the art. The results of these assays are shown in Tables 4 (agonist activity) and 5 (antagonist activity). […] Physiol, 83: 146 (1934)).

| Structure (SMILES) | McPhail Index, Anti-McGinty Assay (Antagonist) (dose 0.3 micrograms) | McPhail Index, Anti-McGinty Assay (Antagonist) (dose 3 micrograms) | McPhail Index, Anti-McGinty Assay (Antagonist) (dose 30 micrograms) | antiprogestational activity in the anti-McGinty assay (in words) | agonist/antagonist profile (in words, McGinty and anti-McGinty tests) |
| --- | --- | --- | --- | --- | --- |
| CC1=[N+]([O-])C2(CC1)CCC1C3CCC4=CC(=O)CCC4=C3C(c3ccc(N(C)C)cc3)CC12C (stereo not drawn) [II 4-Me2 N H O H -- CH3, 3',4'-dihydro-11β-(4-(N,N-dimethylamino)phenyl)-5'-methyl-1'-oxo-spiro[estra-4,9-dien-17β,2'(2'H)-pyrrole]-3-one] | 2.03 ± 0.14 | 1.9 ± 0.85 | 0 ± 0 | potent antiprogestin in the anti-McGinty assay |  |
| CN(C)c1ccc([C@H]2C[C@@]3(C)[C@@H](CC[C@]3(CCCO)[N+](=O)[O-])[C@@H]3CCC4=CC(=O)CCC4=C32)cc1 [I 4-Me2 N H O H --(CH2)3 OH, 11β-[4-(N,N-Dimethylamino)phenyl]-17α-(3-hydroxypropyl)-17β-nitroestra-4,9-dien-3-one] | 1.83 ± 0.48 | 1.87 ± 0.98 | 0.43 ± 0.31 |  |  |
| CC(=O)c1ccc([C@H]2C[C@@]3(C)[C@@H](CC[C@]3(CCCO)[N+](=O)[O-])[C@@H]3CCC4=CC(=O)CCC4=C32)cc1 [I 4-CH3 CO H O H --(CH2)3 OH, 11β-(4-Acetylphenyl)-17α-(3-hydroxypropyl)-17β-nitroestra-4,9-dien-3-one] | 2.93 ± 0.12 | 2.43 ± 0.6 | 1.60 ± 0.66 |  |  |
| CC(=O)c1ccc([C@H]2C[C@@]3(C)[C@@H](CC[C@]3(/C=C/CO)[N+](=O)[O-])[C@@H]3CCC4=CC(=O)CCC4=C32)cc1 [I 4-CH3 CO H O H CH=CHCH2 OH, 11β-(4-acetylphenyl)-17α-(E-3-hydroxy-1-propenyl)-17β-nitroestra-4,9-dien-3-one] | 1.53 ± 0.68 | 1.76 ± 0.45 | 2.3 ± 0.0 |  |  |
| CC#C[C@]1([N+](=O)[O-])CC[C@H]2[C@@H]3CCC4=CC(=O)CCC4=C3[C@@H](c3ccc(C(C)=O)cc3)C[C@@]21C [I 4-CH3 CO H O H --CC--CH3, 11β-(4-Acetylphenyl)-17β-nitro-17α-(1-propynyl)estra-4,9-dien-3-one] | 2.173 ± 0.42 | 2.47 ± 0.15 | 0.13 ± 0.12 |  | mixed (agonist/antagonist) profile |
